According to PubChem BioAssay AID328 (DTP/NCI, 2004):
“And” between values parts separate entries of the source, which are not always exact repeats. Identical values can stand only once. Toxic doses and inconclusive results are not listed.

Test system: BDF1 mice, P388 leukemia ip, median survival T/C
Experiment: NCI In Vivo Anticancer Drug Screen. Data for tumor model P388 Leukemia (intraperitoneal) in B6D2F1 (BDF1) mice
Settings: endpoint: median survival time, higher = longer survival
How it was run: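 Compound-treated tumour-bearing mice were compared with vehicle-treated controls. Survival was recorded, and the value is the treated-group measurement divided by the control-group measurement (T/C).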

[1] = dose: 50.0 mg/kg/injection, schedule: Q04DX003 (ip), vehicle: saline
[2] = dose: 12.5 mg/kg/injection, schedule: Q01DX009 (ip), vehicle: saline with Tween-80
[3] = dose: 25.0 mg/kg/injection, schedule: Q01DX009 (ip), vehicle: saline with Tween-80
[4] = dose: 50.0 mg/kg/injection, schedule: Q01DX009 (ip), vehicle: saline with Tween-80
[5] = dose: 100.0 mg/kg/injection, schedule: Q01DX009 (ip), vehicle: saline with Tween-80
[6] = dose: 200.0 mg/kg/injection, schedule: Q01DX009 (ip), vehicle: saline with Tween-80
[7] = dose: 100.0 mg/kg/injection, schedule: Q04DX003 (ip), vehicle: Klucel (hydroxypropylcellulose) (HPC)
[8] = dose: 400.0 mg/kg/injection, schedule: Q04DX003 (ip), vehicle: Klucel (hydroxypropylcellulose) (HPC)
[9] = dose: 400.0 mg/kg/injection, schedule: Q01DX009 (ip), vehicle: saline with Tween-80

## NC(Cc1cccc(NP(=S)(N2CC2)N2CC2)c1)C(=O)O (stereo not drawn)
dose: 22.0 mg/kg/injection, schedule: Q04DX003 (ip), vehicle: saline
  T/C: 120 % of control
dose: 35.0 mg/kg/injection, schedule: Q04DX003 (ip), vehicle: saline
  T/C: 112 % of control
[1]
  T/C: 150 % of control
dose: 115.0 mg/kg/injection, schedule: Q04DX003 (ip), vehicle: saline
  T/C: 172 % of control
dose: 175.0 mg/kg/injection, schedule: Q04DX003 (ip), vehicle: saline
  T/C: 268 % of control
dose: 264.0 mg/kg/injection, schedule: Q04DX003 (ip), vehicle: saline
  T/C: 272 % of control
dose: 400.0 mg/kg/injection, schedule: Q04DX003 (ip), vehicle: saline
  T/C: 272 % of control
dose: 600.0 mg/kg/injection, schedule: Q04DX003 (ip), vehicle: saline
  T/C: 86 % of control

## CC(CN(C)C)C(=O)/C=C/c1ccccc1 (stereo not drawn)
dose: 18.75 mg/kg/injection, schedule: Q01DX009 (ip), vehicle: saline
  T/C: 100 % of control
dose: 37.5 mg/kg/injection, schedule: Q01DX009 (ip), vehicle: saline
  T/C: 109 % of control
dose: 75.0 mg/kg/injection, schedule: Q01DX009 (ip), vehicle: saline
  T/C: 109 % of control

## Cc1ccc(C[n+]2cccc3c([N+](=O)[O-])cccc32)cc1
[2]
  T/C: 108 % of control
[3]
  T/C: 103 % of control
[4]
  T/C: 113 % of control

## COC(=O)C1(C(=O)OC)N=C(C)OO1
[4]
  T/C: 121 % of control
[5]
  T/C: 112 % of control

## CC/C(=C\c1ccccc1)[N+](=O)[O-]
dose: 12.5 mg/kg/injection, schedule: Q01DX009 (ip), vehicle: saline
  T/C: 96 % of control
dose: 25.0 mg/kg/injection, schedule: Q01DX009 (ip), vehicle: saline
  T/C: 114 % of control and 124 % of control
dose: 50.0 mg/kg/injection, schedule: Q01DX009 (ip), vehicle: saline
  T/C: 123 % of control
[1]
  T/C: 109 % of control
dose: 100.0 mg/kg/injection, schedule: Q04DX003 (ip), vehicle: saline
  T/C: 100 % of control

## CNCc1c2c(O)c3c(O)c(C)c4c(c3c1O)C(=O)C(C)(O/C=C/C(OC)C(C)C(OC(C)=O)C(C)C(O)C(C)C(O)C(C)/C=C/C=C(/C)C(=O)N2)O4 (stereo not drawn)
[4]
  T/C: 100 % of control
[5]
  T/C: 89 % of control
[6]
  T/C: 116 % of control

## CCOC(=O)c1cc(OC(C)=O)c2c(ccc3ccccc32)c1C
[7]
  T/C: 91 % of control
[8]
  T/C: 91 % of control

## CCOC(=O)C(OCc1ccccc1)(C(=O)O)C(C)C (stereo not drawn)
[3]
  T/C: 95 % of control
[4]
  T/C: 90 % of control
[5]
  T/C: 109 % of control
[6]
  T/C: 100 % of control
[9]
  T/C: 104 % of control

## COc1cccc(CCCC(=O)C(C)S(C)=O)c1 (stereo not drawn)
[4]
  T/C: 112 % of control
[5]
  T/C: 101 % of control
[6]
  T/C: 110 % of control

## O=C(O)C1(C(=O)O)CCC1.[NH2-].[NH2-].[Pt+2]
dose: 43.2 mg/kg/injection, schedule: Q01DX001 (ip), vehicle: saline
  T/C: 120 % of control

## COc1c(C(C)(C)C)cc([N+](=O)[O-])c(C)c1[N+](=O)[O-]
[7]
  T/C: 100 % of control
dose: 200.0 mg/kg/injection, schedule: Q04DX003 (ip), vehicle: Klucel (hydroxypropylcellulose) (HPC)
  T/C: 100 % of control
[8]
  T/C: 95 % of control

## O=C1OC(c2ccccc2)=C/C1=C/c1ccc([N+](=O)[O-])cc1
[3]
  T/C: 104 % of control
[4]
  T/C: 90 % of control
dose: 50.0 mg/kg/injection, schedule: Q04DX003 (ip), vehicle: saline with Tween-80
  T/C: 105 % of control
[5]
  T/C: 100 % of control
dose: 100.0 mg/kg/injection, schedule: Q04DX003 (ip), vehicle: saline with Tween-80
  T/C: 109 % of control
[6]
  T/C: 92 % of control
dose: 200.0 mg/kg/injection, schedule: Q04DX003 (ip), vehicle: saline with Tween-80
  T/C: 99 % of control and 104 % of control
dose: 300.0 mg/kg/injection, schedule: Q04DX003 (ip), vehicle: saline with Tween-80
  T/C: 87 % of control
[9]
  T/C: 92 % of control
dose: 400.0 mg/kg/injection, schedule: Q04DX003 (ip), vehicle: saline with Tween-80
  T/C: 96 % of control
dose: 600.0 mg/kg/injection, schedule: Q04DX003 (ip), vehicle: saline with Tween-80
  T/C: 91 % of control

## CN(C)c1ccc(/C=C2\C=Cc3ccccc32)cc1F
dose: 44.0 mg/kg/injection, schedule: Q04DX003 (ip), vehicle: saline sonified
  T/C: 90 % of control
dose: 66.0 mg/kg/injection, schedule: Q04DX003 (ip), vehicle: saline sonified
  T/C: 100 % of control
dose: 100.0 mg/kg/injection, schedule: Q01DX009 (ip), vehicle: saline sonified
  T/C: 104 % of control
dose: 100.0 mg/kg/injection, schedule: Q04DX003 (ip), vehicle: saline sonified
  T/C: 90 % of control
dose: 150.0 mg/kg/injection, schedule: Q04DX003 (ip), vehicle: saline sonified
  T/C: 95 % of control
dose: 200.0 mg/kg/injection, schedule: Q01DX009 (ip), vehicle: saline sonified
  T/C: 100 % of control
dose: 200.0 mg/kg/injection, schedule: Q04DX003 (ip), vehicle: saline sonified
  T/C: 110 % of control
dose: 400.0 mg/kg/injection, schedule: Q01DX009 (ip), vehicle: saline sonified
  T/C: 104 % of control
dose: 400.0 mg/kg/injection, schedule: Q04DX003 (ip), vehicle: saline sonified
  T/C: 120 % of control

## c1ccc2cc(OCC3CO3)c(OCC3CO3)cc2c1 (stereo not drawn)
dose: 30.0 mg/kg/injection, schedule: Q01DX005 (ip), vehicle: saline with Tween-80
  T/C: 161 % of control
dose: 60.0 mg/kg/injection, schedule: Q01DX005 (ip), vehicle: saline with Tween-80
  T/C: 157 % of control
dose: 120.0 mg/kg/injection, schedule: Q01DX005 (ip), vehicle: saline with Tween-80
  T/C: 176 % of control

## O=C(Nc1ccc(C2=NCCN2)cc1)c1ccc(C(=O)Nc2ccc(C3=NCCN3)cc2)c(Cl)c1
dose: 1.56 mg/kg/injection, schedule: Q01DX009 (ip), vehicle: saline with Tween-80
  T/C: 152 % of control
dose: 3.13 mg/kg/injection, schedule: Q01DX009 (ip), vehicle: saline with Tween-80
  T/C: 161 % of control
dose: 6.25 mg/kg/injection, schedule: Q01DX009 (ip), vehicle: saline with Tween-80
  T/C: 189 % of control and 204 % of control
dose: 8.0 mg/kg/injection, schedule: Q01DX010 (ip), vehicle: water
  T/C: 150 % of control and 160 % of control
dose: 10.0 mg/kg/injection, schedule: Q01DX010 (ip), vehicle: water
  T/C: 154 % of control and 195 % of control
dose: 12.0 mg/kg/injection, schedule: Q01DX010 (ip), vehicle: water
  T/C: 160 % of control and 170 % of control
[2]
  T/C: 250 % of control and 200 % of control and 211 % of control
[3]
  T/C: 270 % of control and 108 % of control

## CCN(CC)CCCC(C)NC(=O)c1cc(=O)[nH]c(=O)[nH]1 (stereo not drawn)
dose: 25.0 mg/kg/injection, schedule: Q01DX009 (ip), vehicle: water
  T/C: 103 % of control
dose: 50.0 mg/kg/injection, schedule: Q01DX009 (ip), vehicle: water
  T/C: 106 % of control
dose: 100.0 mg/kg/injection, schedule: Q01DX009 (ip), vehicle: water
  T/C: 100 % of control
dose: 100.0 mg/kg/injection, schedule: Q04DX003 (ip), vehicle: water
  T/C: 100 % of control
dose: 200.0 mg/kg/injection, schedule: Q04DX003 (ip), vehicle: water
  T/C: 98 % of control

## COc1ccccc1NC(=O)CSC(N)=O
dose: 100.0 mg/kg/injection, schedule: Q01DX009 (ip), vehicle: Klucel (hydroxypropylcellulose) (HPC)
  T/C: 110 % of control
dose: 200.0 mg/kg/injection, schedule: Q01DX009 (ip), vehicle: Klucel (hydroxypropylcellulose) (HPC)
  T/C: 120 % of control
dose: 264.0 mg/kg/injection, schedule: Q01DX009 (ip), vehicle: Klucel (hydroxypropylcellulose) (HPC)
  T/C: 113 % of control and 120 % of control

## O=C1c2ccccc2CC1(Cl)Cl
dose: 100.0 mg/kg/injection, schedule: Q01DX001 (ip), vehicle: saline with Tween-80
  T/C: 101 % of control
dose: 200.0 mg/kg/injection, schedule: Q01DX001 (ip), vehicle: saline with Tween-80
  T/C: 96 % of control
dose: 400.0 mg/kg/injection, schedule: Q01DX001 (ip), vehicle: saline with Tween-80
  T/C: 101 % of control

## Nc1ccc(/C=C2\C=Cc3ccccc32)cc1
dose: 17.75 mg/kg/injection, schedule: Q04DX003 (ip), vehicle: saline sonified
  T/C: 100 % of control
dose: 18.75 mg/kg/injection, schedule: Q01DX009 (ip), vehicle: saline with Tween-80
  T/C: 90 % of control
dose: 37.5 mg/kg/injection, schedule: Q01DX009 (ip), vehicle: saline with Tween-80
  T/C: 100 % of control
dose: 37.5 mg/kg/injection, schedule: Q04DX003 (ip), vehicle: saline sonified
  T/C: 100 % of control
dose: 75.0 mg/kg/injection, schedule: Q04DX003 (ip), vehicle: saline sonified
  T/C: 95 % of control

## CCCCCC(CN(C)C)C(=O)/C=C\c1ccc(Cl)cc1Cl (stereo not drawn)
dose: 8.0 mg/kg/injection, schedule: Q01DX009 (ip), vehicle: saline
  T/C: 122 % of control
dose: 12.0 mg/kg/injection, schedule: Q01DX009 (ip), vehicle: saline
  T/C: 122 % of control
dose: 18.0 mg/kg/injection, schedule: Q01DX009 (ip), vehicle: saline
  T/C: 122 % of control
